The results in this text go back to patent US6608086B2, “Dihydropyridines and new uses thereof” (Synaptic Pharmaceutical Corporation, priority 1993, dated 2003).

Test [1] has as its target T1, α1B Human Adrenergic Receptor (Homo sapiens, UniProt P35368).
T1 construct: The entire coding region of α1B (1563 bp); expressed in transfected cells
T1 sequence (P35368 1-520): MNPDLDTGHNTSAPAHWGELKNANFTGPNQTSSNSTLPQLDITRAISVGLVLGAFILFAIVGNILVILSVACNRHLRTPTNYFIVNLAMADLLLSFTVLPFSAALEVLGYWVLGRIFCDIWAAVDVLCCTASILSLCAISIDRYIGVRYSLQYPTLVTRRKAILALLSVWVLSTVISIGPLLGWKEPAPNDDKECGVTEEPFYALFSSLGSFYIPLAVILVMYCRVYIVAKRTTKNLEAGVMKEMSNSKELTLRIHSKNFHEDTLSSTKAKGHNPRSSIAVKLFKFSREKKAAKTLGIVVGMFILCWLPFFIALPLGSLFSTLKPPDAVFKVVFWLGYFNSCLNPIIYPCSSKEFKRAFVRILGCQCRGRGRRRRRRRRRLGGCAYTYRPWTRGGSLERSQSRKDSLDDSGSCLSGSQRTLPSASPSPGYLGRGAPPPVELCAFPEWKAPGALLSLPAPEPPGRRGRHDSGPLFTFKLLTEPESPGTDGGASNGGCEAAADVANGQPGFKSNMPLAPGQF
The experiment in a line: Radioligand binding, [3H]prazosin, cloned human α1B adrenergic receptor. Conditions: pKi alpha-1 1b, cloned human α1B receptor, LM(tk−) cell membranes. Put shortly: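 Membranes from stably transfected LM(tk−) cells, resuspended in 50 mM Tris-HCl, 1 mM MgCl2, 0.1% ascorbic acid, pH 7.5, were incubated with 0.5 nM [3H]prazosin for 20 min at 37° C. Nonspecific binding defined with 10 μM phentolamine; bound ligand separated by GF/B filtration.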

Test [2] has as its target T2, α1C Human Adrenergic Receptor (Homo sapiens, UniProt P35348).
T2 construct: The entire coding region of α1C (1401 bp); expressed in transfected cells
T2 sequence (P35348 1-466): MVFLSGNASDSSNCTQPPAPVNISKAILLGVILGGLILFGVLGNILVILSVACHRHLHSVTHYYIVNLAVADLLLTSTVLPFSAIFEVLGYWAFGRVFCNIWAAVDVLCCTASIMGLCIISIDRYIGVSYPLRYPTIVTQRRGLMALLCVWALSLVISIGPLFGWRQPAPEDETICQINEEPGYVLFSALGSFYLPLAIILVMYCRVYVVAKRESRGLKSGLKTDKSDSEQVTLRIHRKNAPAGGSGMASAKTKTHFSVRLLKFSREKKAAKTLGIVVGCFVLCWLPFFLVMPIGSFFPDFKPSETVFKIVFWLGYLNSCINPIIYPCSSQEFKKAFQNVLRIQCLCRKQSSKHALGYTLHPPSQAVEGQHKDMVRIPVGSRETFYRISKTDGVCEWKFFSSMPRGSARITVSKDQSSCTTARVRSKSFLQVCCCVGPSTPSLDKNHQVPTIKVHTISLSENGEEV
The experiment in a line: Radioligand binding, [3H]prazosin, cloned human α1C adrenergic receptor. As to conditions: cloned human α1C receptor, LM(tk−) cell membranes. Put shortly:
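Membranes from LM(tk−) cells stably expressing the cloned human α1C receptor were incubated with 0.5 nM [3H]prazosin at 37° C. for 20 min in 50 mM Tris-HCl, 1 mM MgCl2, 0.1% ascorbic acid, pH 7.5. Nonspecific binding was defined with 10 μM phentolamine, and bound ligand was separated by GF/B filtration.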

A further test deals with T3, α2B receptor (Homo sapiens, UniProt P18089).
T3 construct: host or cells: LM(tk-) cells, line L-NGC-α2B
T3 sequence (P18089 1-450): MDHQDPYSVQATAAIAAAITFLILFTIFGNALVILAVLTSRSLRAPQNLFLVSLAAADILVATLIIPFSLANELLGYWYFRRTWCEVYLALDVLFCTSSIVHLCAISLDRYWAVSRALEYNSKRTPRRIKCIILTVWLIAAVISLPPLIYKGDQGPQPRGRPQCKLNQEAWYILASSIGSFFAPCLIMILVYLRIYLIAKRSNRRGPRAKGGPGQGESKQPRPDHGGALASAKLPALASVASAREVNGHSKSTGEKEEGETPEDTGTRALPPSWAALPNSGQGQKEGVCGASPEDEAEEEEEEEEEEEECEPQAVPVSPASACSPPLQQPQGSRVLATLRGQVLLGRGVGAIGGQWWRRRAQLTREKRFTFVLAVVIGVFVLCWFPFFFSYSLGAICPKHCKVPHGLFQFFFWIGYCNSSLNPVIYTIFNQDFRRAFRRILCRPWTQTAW
Put plainly: Competition binding, [3H]rauwolscine, human α2B receptor. Conditions: [3H]rauwolscine, human α2B receptor, LM(tk−) cells. Put shortly:
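Lysates of LM(tk−) cells stably expressing each α2 subtype were suspended in 25 mM glycylglycine buffer (pH 7.6 at room temperature). Equilibrium competition binding used 0.5 nM [3H]rauwolscine, with nonspecific binding defined by 10 μM phentolamine; bound radioligand was separated by GF/B filtration.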

Like-named read-outs stand apart in the source and are kept apart here.

As to `CCC1=C(C(=O)NCCCN2CCC(c3ccccc3)(c3ccccc3)CC2)C(c2ccc([N+](=O)[O-])cc2)C(C(N)=O)=C(COCCN=[N+]=[N-])N1` (stereo not drawn) [Example 149, 2-((2-Azidoethyl)oxy)methyl-3-carboxamido-6-ethyl-1,4-dihydro-4-(4-nitro) phenyl-5-(N-(3-(4,4-diphenylpiperidin-1-yl)propyl))carboxamidopyridine], the values for the Ki (in test [1]; in test [2] (pKi alpha-1 1c); at α2B receptor (pKi alpha-2 2b)) were 245 nM, 5.5 nM and 562 nM, respectively.
With `CCC1=C(C(=O)NCCCN2CCC(c3ccccc3)(c3ccccc3)CC2)C(c2ccc([N+](=O)[O-])cc2)C(C(=O)NC)=C(COCCN=[N+]=[N-])N1` (stereo not drawn) [Example 151, 2-((2-Azidoethyl)oxy)methyl-6-ethyl-1,4-dihydro-3-(N-methyl)carboxamido-4-(4-nitro)phenyl-5-(N-(3-(4,4-diphenylpiperidin-1-yl)propyl))carboxamidopyridine], the results for the Ki (in test [1]; in test [2] (pKi alpha-1 1c); on α2B receptor (pKi alpha-2 2b)) were 355 nM, 12.3 nM and 537 nM, respectively.
For `CC1=C(C(=O)NCCCN2CCC(c3ccccc3)(c3ccccc3)CC2)C(c2ccc([N+](=O)[O-])cc2)C(C(=O)NC(C)C)=C(C)N1` (stereo not drawn) [Example 156, 1,4-Dihydro-3-(N-isopropyl) carboxamido-2,6-dimethyl-4-(4-nitrophenyl)-5-{N-[3-(^414-diphenylpiperidin-1-yl)propyl]}carboxamidopyridine] the same measures were 676 nM, 95.5 nM and 562 nM.
Take `CC1=C(C(=O)NCCCN2CCC(c3ccccc3)(c3ccccc3)CC2)C(c2ccc([N+](=O)[O-])cc2)C(C(=O)OCCC#N)=C(C)N1` (stereo not drawn) [Example 160]: the Ki in test [1] was 138 nM; in test [2] (read-out: pKi alpha-1 1c (converted)), 7.94 nM; on α2B receptor (read-out: pKi alpha-2 2b (converted)), 148 nM.
With `CNC(=O)C1=C(C)NC(C)=C(C(=O)NCCCN2CCC(O)(c3ccccc3)CC2)C1c1ccc([N+](=O)[O-])cc1` (stereo not drawn) [Example 162, 1,4-Dihydro-3-{N-[3-(4-hydroxy-4-phenylpiperidin-1-yl)propyl]}carboxamido-2,6-dimethyl-5-(N-methyl)carboxamido-4-(4-nitrophenyl)pyridine], the Ki was 257 nM in test [1], 11.5 nM in test [2] (pKi alpha-1 1c) and 347 nM at α2B receptor (pKi alpha-2 2b).
